Experimental data published in PMC5435687 (Scientific Reports, 2017).

Experiments:
Assay type in all cases: cell-based, human
SH-SY5Y cells = assay: Flow cytometry quantification of cellular uptake and clearance; conditions: 500 nM, up to 3 days, 500 nM to 2.5 µM for 5 h
Procedure: SH-SY5Y cells were grown in a 1:1 mixture of minimal essential medium (MEM) and nutrient mixture F-12 Ham supplemented with 10% heat-inactivated fetal bovine serum, 1% MEM non-essential amino acids and 2 mM L-glutamine. The cells were detached (trypsin-EDTA 0.05%, 5 minutes) and passaged twice a week. Cells were plated 1day prior to experiments in either flat-bottomed 96 well plates (Nunc; 60,000 cells/well for experiments <1day and 20,000 cells/well for experiments ≥1day) for flow cytometry or in glass-bottomed culture dishes (MatTek; 25,000 cells/14 mm dish) for microscopy.
Flow cytometry was used to quantify cellular uptake. […] All samples were kept on ice until they were analysed on a Guava EasyCyte 8HT (Millipore, Darmstadt, Germany) that automatically retrieves samples from a 96-well plate. […] The cell counting gate was determined using propidium iodide (0.5 µM, not washed away prior to analysis) and calcein-AM (10 nM, 15 min staining) to distinguish live and dead cells, and for each sample 5,000 cells from within the live gate were counted and analysed. HF488, AlexaFluor488, EGFP and calcein-AM were excited by a 488 nm laser and their fluorescence was detected through a 525/30 nm filter. Propidium iodide and mRFP were excited by the 488 nm laser but detected through a 692/46 nm filter. HF647 and AlexaFluor647 were excited with a 635 nm laser and detected through a 661/19 nm filter. […]

[1] = test system: SH-SY5Y cells transfected with AP180-C; assay: Uptake in cells overexpressing AP180-C; conditions: SH-SY5Y 24 h post transfection; HF488-labelled Aβ 1 µM 1 h or AF647-Trf 5 µg/ml 5 min; low and high mRFP gates; N = 2, n = 2–4
Procedure: Flow cytometry was used to quantify cellular uptake. The samples were washed in serum free medium (1x for experiments including only Aβ and 3x for experiments with Trf) prior to incubation with Aβ peptides and/or other reagents in serum free medium supplemented with 30 mM HEPES and 2% B-27. For experiments including Trf B-27 was omitted, as outlined above. Prior to analysis, the cells were washed 1x (for experiments including only Aβ) or 3x (for experiments including Aβ and dextran 10 kDa or Trf) in serum free medium, detached by trypsin-EDTA for 10 min followed by addition of FBS-supplemented cell culture medium to inhibit further proteolytic degradation. All samples were kept on ice until they were analysed on a Guava EasyCyte 8HT (Millipore, Darmstadt, Germany) that automatically retrieves samples from a 96-well plate. In order to exclude effects due to difference in delay time we used mixed order of analysis, loading only a few samples at a time with the remaining samples kept on ice. The cell counting gate was determined using propidium iodide (0.5 µM, not washed away prior to analysis) and calcein-AM (10 nM, 15 min staining) to distinguish live and dead cells, and for each sample 5,000 cells from within the live gate were counted and analysed. HF488, AlexaFluor488, EGFP and calcein-AM were excited by a 488 nm laser and their fluorescence was detected through a 525/30 nm filter. Propidium iodide and mRFP were excited by the 488 nm laser but detected through a 692/46 nm filter. HF647 and AlexaFluor647 were excited with a 635 nm laser and detected through a 661/19 nm filter. Compensation was performed to adjust for bleed through in experiments including mRFP. Mean cellular uptake was estimated as the average fluorescence intensity of all cells gated within the live region and all individual experiments were performed with three technical replicates (n = 3) unless else is stated. The average fluorescence intensity was baseline corrected by subtracting the signal for unstained cells. […]

[2] = test system: SH-SY5Y cells transfected with Arf6 WT/Q67L; assay: Uptake in cells transfected with Arf6 WT or Q67L (confocal imaging); conditions: SH-SY5Y 24 h post transfection, 1 µM HF488-labelled Aβ 24 h, confocal microscopy
Procedure: The samples were washed 1x in serum free medium prior to incubation with Aβ peptides and/or other reagents also in serum free medium that was supplemented with 30 mM HEPES and 2% B-27. For experiments including Trf B-27 was omitted as it, according to the media formulation provided by the manufacturer, contains unlabelled Trf that interferes with the experiment. Prior to imaging, cells were stained with 50 nM LysoTracker Deep Red for 30 min and 5 µg/ml Hoechst 33342 was added during the last 10 min of incubation. The cells were thereafter washed 1x, treated with 5 µg/ml FM 4–64 and imaged immediately (for labelling of cellular membrane) or after 10 min incubation at 37 °C (for labelling of cellular membrane and endocytic vesicles). […] The scanner unit was mounted onto a Leica DMIRB microscope equipped with an oil immersion 63x NA 1.47 Leica HCX PL APO objective for imaging and co-localisation analysis, or a 40x NA 0.55 Leica N PLAN L CORR air objective for quantification of peptide uptake. The sample was excited and detected sequentially with appropriate excitation laser lines and emission filters. […]

Row | Substance | saturation of intracellular concentration (SH-SY5Y cells) | uptake in AP180-C transfected cells compared to non-transfected cells [1] | Aβ uptake in Arf6 Q67L versus wild-type Arf6 overexpressing cells [2]
1 | Aβ(1–40): Synthetic 40 residue amyloid-β peptide conjugated to HiLyte Fluor HF488 (or HF647) at the N-terminus, from Anaspec | neither Aβ(1–40) nor Aβ(1–42) appears to saturate | neither Aβ(1–40) nor Aβ(1–42) uptake was affected | no difference
2 | Aβ(1–42): Synthetic 42 residue amyloid-β peptide conjugated to HiLyte Fluor HF488 (or HF647) at the N-terminus, from Anaspec | neither Aβ(1–40) nor Aβ(1–42) appears to saturate | small but statistically significant increase | no difference
